Experimental data taken from US8722720B2, “Imidazole derivatives as IDO inhibitors” (NewLink Genetics Corporation, priority 2010, dated 2014).

biological target: T1, purified human IDO protein (Homo sapiens, UniProt P14902); test: Enzymatic IDO assay (kynurenine production, absorbance at 480 nm); assay type: biochemical; settings: hIDO IC50, recombinant human IDO; values reported in ranges
T1 construct: 2 extra amino acids (linker from the BglII cloning site of pQE70); made in house; host or cells: E. coli M15(pREP4) with plasmid pQE70-hIDO
Method: The inhibitors were initially diluted in DMSO at 100 mM and were diluted in potassium phosphate 50 mM, added to the reaction mixture at final concentrations raging from 1 mM to 5 nM and preincubated with the enzyme for 5 min at 25° C. The reaction was started by addition of L-tryptophan to 200 μM and incubated 15 min at 37° C. The reaction was stopped by addition of 0.5 vol of 30% trichloroacetic acid and incubated 30 min at 60° C. to hydrolyze N-formylkynurenine to kynurenine. The reaction was centrifuged at 3400 g for 5 min to remove precipitated protein and the supernatant was reacted with 2% (w/v) of p-dimethylaminobenzaldehyde in acetic acid. The reaction was incubated 10 min at 25° C. and read at 480 nm in a spectrophotometer. […] Nonlinear regressions and determination of the IC50 values were performed using the GraphPad Prism 4 software.

T1 sequence (P14902 whole entry P110S/E119G): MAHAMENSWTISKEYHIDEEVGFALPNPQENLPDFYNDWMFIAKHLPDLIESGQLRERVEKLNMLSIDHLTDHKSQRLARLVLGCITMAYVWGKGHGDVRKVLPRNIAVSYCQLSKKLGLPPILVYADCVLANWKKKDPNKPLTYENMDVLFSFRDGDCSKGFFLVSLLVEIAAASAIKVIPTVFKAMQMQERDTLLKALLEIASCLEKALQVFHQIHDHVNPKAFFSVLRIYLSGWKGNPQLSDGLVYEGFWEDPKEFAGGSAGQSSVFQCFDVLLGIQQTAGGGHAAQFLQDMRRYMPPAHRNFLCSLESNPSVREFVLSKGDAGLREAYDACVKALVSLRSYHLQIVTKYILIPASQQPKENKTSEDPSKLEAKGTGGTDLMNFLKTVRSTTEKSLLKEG

Row | Compound | IC50
1 | Oc1c(Cl)cc(Cl)c(OCCC2CCCCC2)c1-c1cnc[nH]1 [compound 1086, 4,6-dichloro-3-(2-cyclohexylethoxy)-2-(1H-imidazol-5-yl)phenol] | > 100 µM

same assay, conditions: recombinant human IDO; values reported in ranges; read-out: hIDO IC50

Row | Compound | IC50
2 | COc1ccccc1-c1cnco1 [compound 945, 5-(2-methoxyphenyl)oxazole] | > 100 µM
3 | CN1CCN(CCOc2ccccc2-c2c[nH]cn2)CC1 [compound 1234, 1-(2-(2-(1H-imidazol-4-yl)phenoxy)ethyl)-4-methylpiperazine] | > 100 µM
4 | O=C(O)c1ccccc1-c1c[nH]cn1 [compound 926, 2-(1H-imidazol-4-yl)benzoic acid] | > 100 µM
5 | c1ccc(-c2c[nH]cn2)c(OCc2cscn2)c1 [compound 1289, 4-((2-(1H-imidazol-4-yl)phenoxy)methyl) thiazole] | 10 to 100 µM
6 | Clc1ccc(CCOc2ccccc2-c2c[nH]cn2)cn1 [compound 1218, 5-(2-(2-(1H-imidazol-4-yl)phenoxy)ethyl)-2-chloropyridine] | 10 to 100 µM
7 | Oc1cccc(OCCc2cccc(Cl)c2)c1-c1cnc[nH]1 [compound 1160, 3-(3-chlorophenethoxy)-2-(1H-imidazol-5-yl) phenol] | 1 to 10 µM
8 | CC(COc1ccccc1-c1c[nH]cn1)c1coc2ccccc12 (stereo not shown) [compound 1031, 4-(2-(2-(benzofuran-3-yl)propoxy)phenyl)-1H-imidazole] | 1 to 10 µM
9 | c1ccc(OCc2cccc(-c3c[nH]cn3)c2)cc1 [compound 996, 4-(3-(phenoxymethyl)phenyl)-1H-imidazole] | 10 to 100 µM
10 | O=C(CC1CCOCC1)Nc1ccc(CCOc2ccccc2-c2c[nH]cn2)c(F)c1 [compound 1295, N-(4-(2-(2-(1H-imidazol-4-yl)phenoxy)ethyl)-3-fluorophenyl)-2-(tetrahydro-2H-pyran-4-yl)acetamide] | < 1 µM
11 | c1ccc(-c2c[nH]cn2)c(OCCc2ccc(N3CCCCC3)cc2)c1 [compound 1223, 1-(4-(2-(2-(1H-imidazol-4-yl)phenoxy)ethyl)phenyl)piperidine] | 10 to 100 µM
12 | Nc1cccc(CC(=O)Nc2ccc(CCOc3ccccc3-c3c[nH]cn3)cc2)c1 [compound 1244, N-(4-(2-(2-(1H-imidazol-4-yl)phenoxy)ethyl)phenyl)-2-(3-aminophenyl)acetamide] | 1 to 10 µM
13 | O=C(Cn1ccnc1)Nc1ccc(CCOc2ccccc2-c2c[nH]cn2)cc1 [compound 1217, N-(4-(2-(2-(1H-imidazol-4-yl)phenoxy)ethyl)phenyl)-2-(1H-imidazol-1-yl)acetamide] | 1 to 10 µM
14 | CCOC(=O)c1ccc(COc2ccccc2-c2c[nH]cn2)cc1 [compound 1029, ethyl 4-((2-(1H-imidazol-4-yl)phenoxy)methyl) benzoate] | 10 to 100 µM
15 | c1csc(CCOc2ccccc2-c2c[nH]cn2)c1 [compound 1198, 4-(2-(2-(thiophen-2-yl)ethoxy)phenyl)-1H-imidazole] | 10 to 100 µM
16 | Nc1ncccc1C(=O)Nc1ccc(CCOc2ccccc2-c2c[nH]cn2)c(Cl)c1 [compound 1345, N-(4-(2-(2-(1H-imidazol-4-yl)phenoxy)ethyl)-3-chlorophenyl)-2-aminonicotinamide] | < 1 µM
17 | O=C(Cc1ccccc1[N+](=O)[O-])Nc1ccc(CCOc2ccccc2-c2c[nH]cn2)cc1 [compound 1242, N-(4-(2-(2-(1H-imidazol-4-yl)phenoxy)ethyl)phenyl)-2-(2-nitrophenyl)acetamide] | < 1 µM
18 | c1nc(-c2ccc3c(c2)OCO3)c[nH]1 [compound 955, 4-(benzo[d][1,3]dioxol-5-yl)-1H-imidazole] | > 100 µM
19 | CCOC(=O)/C=C/c1ccccc1-c1c[nH]cn1 [compound 1014, (E)-ethyl 3-(2-(1H-imidazol-4-yl)phenyl)acrylate] | 10 to 100 µM
20 | FC(F)(F)c1ccccc1CCOc1ccccc1-c1c[nH]cn1 [compound 1040, 4-(2-(2-(trifluoromethyl)phenethoxy)phenyl)-1H-imidazole] | 1 to 10 µM
21 | c1cnc(-c2c[nH]cn2)nc1 [compound 972, 2-(1H-imidazol-4-yl)pyrimidine] | > 100 µM
22 | O=C(CC1CCCO1)Nc1ccc(CCOc2ccccc2-c2c[nH]cn2)cc1 (stereo not shown) [compound 1199, N-(4-(2-(2-(1H-imidazol-4-yl)phenoxy)ethyl)phenyl)-2-(tetrahydrofuran-2-yl)acetamide] | 1 to 10 µM
23 | COc1ncccc1-c1c[nH]cn1 [compound 1012, 3-(1H-imidazol-4-yl)-2-methoxypyridine] | > 100 µM
24 | COC(=O)c1cccc(C(=O)Nc2ccc(CCOc3ccccc3-c3c[nH]cn3)cc2)c1 [compound 1261, methyl 3-((4-(2-(2-(1H-imidazol-4-yl)phenoxy)ethyl)phenyl)carbamoyl)benzoate] | < 1 µM
25 | COc1cccc2c1-c1cncn1C2 [compound 1013, 9-methoxy-5H-imidazo[5,1-a]isoindole] | 10 to 100 µM

Row | Compound | IC50
26 | CC(=O)Nc1ccc(CCOc2ccccc2-c2c[nH]cn2)c(Cl)c1 [compound 1159, N-(4-(2-(2-(1H-imidazol-4-yl)phenoxy)ethyl)-3-chlorophenyl)acetamide] | 1 to 10 µM
27 | c1ccc(-c2c[nH]cn2)c(OCc2ccc3c(c2)OCO3)c1 [compound 1027, 4-(2-(benzo[d][1,3]dioxol-5-ylmethoxy)phen-yl)-1H-imidazole] | 10 to 100 µM
28 | O=C1CCCCN1c1ccc(CCOc2ccccc2-c2c[nH]cn2)cc1 [compound 1230, 1-(4-(2-(2-(1H-imidazol-4-yl)phenoxy)ethyl)phenyl)piperidin-2-one] | 10 to 100 µM
29 | Oc1cccc(OCCc2ccc(Cl)cc2)c1-c1cnc[nH]1 [compound 1148, 3-(4-chlorophenethoxy)-2-(1H-imidazol-5-yl) phenol] | 1 to 10 µM
30 | c1ccc2c(-c3c[nH]cn3)ccnc2c1 [compound 1007, 4-(1H-imidazol-4-yl)quinoline] | > 100 µM
31 | O=C(Nc1ccc(CCOc2ccccc2-c2c[nH]cn2)cc1)NC1CCOCC1 [compound 1263, 1-(4-(2-(2-(1H-imidazol-4-yl)phenoxy)ethyl)phenyl)-3-(tetrahydro-2H-pyran-4-yl)urea] | 10 to 100 µM
32 | COC(=O)c1ccccc1CCOc1ccccc1-c1c[nH]cn1 [compound 934, methyl 2-(2-(2-(1H-imidazol-4-yl)phenoxy)ethyl) benzoate] | > 100 µM
33 | c1ccc(-c2cncn2-c2ccccc2)cc1 [compound 1108, 1,5-diphenyl-1H-imidazole] | 10 to 100 µM
34 | Oc1cc(F)c(Cl)cc1-c1cnc[nH]1 [compound 1130, 4-chloro-5-fluoro-2-(1H-imidazol-5-yl)phenol] | 1 to 10 µM
35 | O=S(=O)(Cc1ccccc1)Nc1ccc(CCOc2ccccc2-c2c[nH]cn2)cc1 [compound 1151, N-(4-(2-(2-(1H-imidazol-4-yl)phenoxy)ethyl)phenyl)-1-phenylmethanesulfonamide] | 1 to 10 µM
36 | Nc1ccccc1CC(=O)Nc1ccc(CCOc2ccccc2-c2c[nH]cn2)cc1 [compound 1248, N-(4-(2-(2-(1H-imidazol-4-yl)phenoxy)ethyl)phenyl)-2-(2-aminophenyl)acetamide] | < 1 µM
37 | CC(=O)Nc1ccccc1-c1c[nH]cn1 [compound 1121, N-(2-(1H-imidazol-4-yl)phenyl)acetamide] | > 100 µM
38 | Clc1ccc(COc2ccccc2-c2c[nH]cn2)cc1Cl [compound 1003, 4-(2-(3,4-dichlorobenzyloxy)phenyl)-1H-imidazole] | 1 to 10 µM
39 | c1ccc(Nc2nc3ccc(CCOc4ccccc4-c4c[nH]cn4)cc3o2)cc1 [compound 1222, 6-(2-(2-(1H-imidazol-4-yl)phenoxy)ethyl)-N-phenylbenzo[d]oxazol-2-amine] | 1 to 10 µM
40 | O=C(Nc1ccc(CCOc2ccccc2-c2c[nH]cn2)cc1)c1cc(=O)[nH]c(=O)[nH]1 [compound 1272] | 1 to 10 µM
41 | O=C(Nc1ccc(CCOc2ccccc2-c2c[nH]cn2)cc1)c1ccc[nH]c1=O [compound 1204, N-(4-(2-(2-(1H-imidazol-4-yl)phenoxy)ethyl)phenyl)-2-oxo-1,2-dihydropyridine-3-carboxamide] | 1 to 10 µM
42 | c1ccc(-c2c[nH]cn2)c(OCCc2csc3ccccc23)c1 [compound 1202, 4-(2-(2-(benzo[b]thiophen-3-yl)ethoxy)phenyl)-1H-imidazole] | 10 to 100 µM
43 | O=C(Nc1ccc(CCOc2ccccc2-c2c[nH]cn2)cc1)c1cccs1 [compound 1150, N-(4-(2-(2-(1H-imidazol-4-yl)phenoxy)ethyl)phenyl)thiophene-2-carboxamide] | 1 to 10 µM
44 | O=C(Nc1ccc(CCOc2ccccc2-c2c[nH]cn2)cc1)OCc1ccccc1 [compound 1136, benzyl (4-(2-(2-(1H-imidazol-4-yl)phenoxy)ethyl)phenyl)carbamate] | 1 to 10 µM
45 | Ic1ccccc1-c1cnc[nH]1 [compound 1119, 5-(2-iodophenyl)-1H-imidazole] | 10 to 100 µM
46 | CC(C)(C)C(=O)Nc1ccc(CCOc2ccccc2-c2c[nH]cn2)cc1 [compound 1101, N-(4-(2-(2-(1H-imidazol-4-yl)phenoxy)ethyl)phenyl)pivalamide] | 1 to 10 µM
47 | O=C(Oc1ccc(Cl)cc1-c1c[nH]cn1)N1CCCC1 [compound 1087, 4-chloro-2-(1H-imidazol-4-yl)phenyl pyrrolidine-1-carboxylate] | > 100 µM
48 | Fc1ccc(OCCc2ccccc2)c(-c2cnc[nH]2)c1 [compound 1292, 5-(5-fluoro-2-phenethoxyphenyl)-1H-imidazole] | 10 to 100 µM
49 | O=C(CN1CCCCCC1)Nc1ccc(CCOc2ccccc2-c2c[nH]cn2)cc1 [compound 1219, N-(4-(2-(2-(1H-imidazol-4-yl)phenoxy)ethyl)phenyl)-2-(azepan-1-yl)acetamide] | 10 to 100 µM
